Laboratory results reported in patent publication US8324245B2, “Quinoline derivative and quinazoline derivative inhibiting self-phosphorylation of hepatocytus proliferator receptor, and medicinal composition containing the same” (Kyowa Hakko Kirin Co., Ltd., priority 2001, dated 2012).

Columns and labels:
[1] = target: T1, met (HGF receptor) in human gastric cancer cells MKN45 (Homo sapiens, UniProt P08581); assay: Inhibitory activity against met-autophosphorylation using ELISA method (2), MKN45 cells, HGF-independent; type: cell-based
T1 construct: endogenous in cells; host or cells: MKN45 human gastric cancer cells
How it was run: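 Met autophosphorylation was read by sandwich ELISA: phosphotyrosine capture (PY20), anti-HGF receptor detection, peroxidase read-out at 450 nm. Lysates came from MKN45 gastric cancer cells kept in 0.1% FCS RPMI and treated 1 h at 37 °C with test compound, with no added HGF.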

[2] = system: human signet-ring type gastric cancer cells (NUGC-4); assay: Tumor growth inhibitory activity against various human tumor cells in nude mice: NUGC-4; type: in vivo; details: NUGC-4, Oral, 30 × 2 mg/kg × number of times, 5 days
Method: (§1) Human gastric cancer cells (MKN 45) (obtained from RIKEN), human brain tumor cells (U87MG) (obtained from ATCC), human pancreatic cancer cells (KP4) (obtained from RIKEN), human pancreatic cancer cells (SUIT-2) (obtained from National Kyushu Cancer Center), and human signet-ring type gastric cancer cells (NUGC-4) (obtained from RIKEN), or human lung cancer cells (LC6) (obtained from Central Laboratories for Experimental Animals) were transplanted into nude mice. […] The test compound suspended in 0.5% methylcellulose was orally administered once or twice a day for 5 days. Only 0.5% methylcellulose was administered to the control group in the manner as in the test groups. […] The tumor growth inhibition rate (TGIR) was calculated as follows: The tumor growth inhibition rate (TGIR)=(1−TX/CX)×100 wherein CX represents the relative tumor volume at the 5th day for the control group when the tumor volume at the day of the start of the administration was presumed to be 1; and TX represents the relative tumor volume for test compound administration groups.

[3] = system: human pancreatic cancer cells (KP4); assay: Tumor growth inhibitory activity against various human tumor cells in nude mice: KP4; type: in vivo; details: KP-4, Oral, 5 days
Method: (§2) Human gastric cancer cells (MKN 45) (obtained from RIKEN), human brain tumor cells (U87MG) (obtained from ATCC), human pancreatic cancer cells (KP4) (obtained from RIKEN), human pancreatic cancer cells (SUIT-2) (obtained from National Kyushu Cancer Center), and human signet-ring type gastric cancer cells (NUGC-4) (obtained from RIKEN), or human lung cancer cells (LC6) (obtained from Central Laboratories for Experimental Animals) were transplanted into nude mice. […] The test compound suspended in 0.5% methylcellulose was orally administered once or twice a day for 5 days. Only 0.5% methylcellulose was administered to the control group in the manner as in the test groups. Alternatively, the test compound dissolved in physiological saline (with a 1 N aqueous hydrochloric acid solution added thereto) was intraveneously injected once a day for 5 days, and only physiological saline (with a 1 N aqueous hydrochloric acid solution added thereto) was administered to the control group in the same manner as in the test groups. The tumor growth inhibition rate (TGIR) was calculated as follows: The tumor growth inhibition rate (TGIR)=(1−TX/CX)×100 wherein CX represents the relative tumor volume at the 5th day for the control group when the tumor volume at the day of the start of the administration was presumed to be 1; and TX represents the relative tumor volume for test compound administration groups.

[4] = system: Human brain tumor cells (U87MG); assay: Tumor growth inhibitory activity against human brain tumor cells (U87MG) in nude mice; type: in vivo; details: oral, twice a day for 5 days
Method: Human brain tumor cells (U87MG) were transplanted into nude mice. […] The test compound suspended in 0.5% methylcellulose was orally administered twice a day for 5 days.
(§3) Only 0.5% methylcellulose was administered to the control group in the manner as in the test groups. The tumor growth inhibition rate (TGIR) was calculated as follows: The tumor growth inhibition rate (TGIR)=(1−TX/CX)×100 wherein CX represents the relative tumor volume at day X for the control group when the tumor volume at the day of the start of the administration was presumed to be 1; and TX represents the relative tumor volume for test compound administration groups.

[5] = system: human lung cancer cells (LC6); assay: Tumor growth inhibitory activity against various human tumor cells in nude mice: LC6; type: in vivo; details: LC6, Oral, 30 × 2 mg/kg × number of times, 5 days
Method: as §2

[6] = system: Human gastric cancer cells (MKN 45); assay: Tumor growth inhibitory activity against human gastric cancer cells (MKN 45) in nude mice; type: in vivo; details: oral, twice a day for 5 days
Method: Human gastric cancer cells (MKN 45) were transplanted into nude mice. […] The test compound suspended in 0.5% methylcellulose was orally administered twice a day for 5 days.
as §3

[7] = target: T2, met (HGF receptor) in human epidermal cancer cells A431 (Homo sapiens, UniProt P08581); assay: Inhibitory activity against met-autophosphorylation using ELISA method (1), HGF-stimulated A431 cells; type: cell-based; details: HGF 50 ng/ml stimulation, read-out: IC50 (concentration necessary for inhibiting 50% of met phosphorylation)
T2 construct: endogenous in cells; host or cells: A431 human epidermal cancer cells
Method: Human epidermal cancer cells A431 were cultured in an RPMI 1640 medium containing 10% fetal calf serum (purchased from GIBCO BRL) within a 5% carbon dioxide incubator until 50 to 90% confluent. Cells were cultured with RPMI medium containing 0.1% fetal calf serum in 96-well flat-bottom plate in an amount of 3×10^4 per well, and were incubated at 37° C. overnight. The medium was then replaced by a fresh RPMI medium containing 0.1% fetal calf serum. A solution of the test compound in dimethyl sulfoxide was added to each well, and the cells were incubated at 37° C. for additional one hr. A human recombinant hepatocyte growth factor (hereinafter abbreviated to “HGF”) was added to a final concentration of 50 ng/ml, and the stimulation of cells was carried out at 37° C. for 5 min. The medium was removed, the cells were washed with phosphate buffered saline (pH 7.4), and 50 μl of lysis buffer (20 mM HEPES (pH 7.4), 150 mM NaCl, 0.2% Triton X-100, 10% glycerol, 5 mM sodium orthovanadylate, 5 mM disodium ethylenediaminetetraacetate, and 2 mM Na4P2O7) was then added thereto. […]
Separately, phosphate buffered saline (50 μl, pH 7.4) containing 5 μg/ml of anti-phospho-tyrosine antibody (PY20; purchased from Transduction Laboratories) was added to a microplate for ELISA (Maxisorp; purchased from NUNC), followed by gentle agitation at 4° C. overnight to coat the surface of the wells with the antibody. […] After washing, the whole quantity of the cell extract was transferred to the wells, and the plate was then allowed to incubate at 4° C. overnight. […] After a suitable level of color development, a reaction termination solution was added to stop the reaction, and the absorbance at 450 nm was measured with a microplate reader. The met-phosphorylation inhibitory activity for each well was determined by presuming the absorbance with the addition of HGF and the vehicle to compounds to be 0% met-phosphorylation inhibitory activity and the absorbance with the addition of the vehicle to compounds and without HGF to be 100% met phosphorylation inhibitory activity. […]

[8] = system: Human gastric cancer cells (MKN 45); assay: Tumor growth inhibitory activity against various human tumor cells in nude mice: MKN 45; type: in vivo; details: Mus musculus, MKN-45, po, 120 h, MKN45, Oral, 5 days; read-out: TGIR
Method: as §2

[9] = system: Human brain tumor cells (U87MG); assay: Tumor growth inhibitory activity against various human tumor cells in nude mice: U87MG; type: in vivo; details: Oral, 30 × 2 mg/kg × number of times, 5 days
Method: as §2

[10] = system: human pancreatic cancer cells (SUIT-2); assay: Tumor growth inhibitory activity against various human tumor cells in nude mice: SUIT-2; type: in vivo; details: SUIT-2, Oral, 25 × 1 mg/kg × number of times, 5 days
Method: as §1

T1 sequence (P08581 25-1390): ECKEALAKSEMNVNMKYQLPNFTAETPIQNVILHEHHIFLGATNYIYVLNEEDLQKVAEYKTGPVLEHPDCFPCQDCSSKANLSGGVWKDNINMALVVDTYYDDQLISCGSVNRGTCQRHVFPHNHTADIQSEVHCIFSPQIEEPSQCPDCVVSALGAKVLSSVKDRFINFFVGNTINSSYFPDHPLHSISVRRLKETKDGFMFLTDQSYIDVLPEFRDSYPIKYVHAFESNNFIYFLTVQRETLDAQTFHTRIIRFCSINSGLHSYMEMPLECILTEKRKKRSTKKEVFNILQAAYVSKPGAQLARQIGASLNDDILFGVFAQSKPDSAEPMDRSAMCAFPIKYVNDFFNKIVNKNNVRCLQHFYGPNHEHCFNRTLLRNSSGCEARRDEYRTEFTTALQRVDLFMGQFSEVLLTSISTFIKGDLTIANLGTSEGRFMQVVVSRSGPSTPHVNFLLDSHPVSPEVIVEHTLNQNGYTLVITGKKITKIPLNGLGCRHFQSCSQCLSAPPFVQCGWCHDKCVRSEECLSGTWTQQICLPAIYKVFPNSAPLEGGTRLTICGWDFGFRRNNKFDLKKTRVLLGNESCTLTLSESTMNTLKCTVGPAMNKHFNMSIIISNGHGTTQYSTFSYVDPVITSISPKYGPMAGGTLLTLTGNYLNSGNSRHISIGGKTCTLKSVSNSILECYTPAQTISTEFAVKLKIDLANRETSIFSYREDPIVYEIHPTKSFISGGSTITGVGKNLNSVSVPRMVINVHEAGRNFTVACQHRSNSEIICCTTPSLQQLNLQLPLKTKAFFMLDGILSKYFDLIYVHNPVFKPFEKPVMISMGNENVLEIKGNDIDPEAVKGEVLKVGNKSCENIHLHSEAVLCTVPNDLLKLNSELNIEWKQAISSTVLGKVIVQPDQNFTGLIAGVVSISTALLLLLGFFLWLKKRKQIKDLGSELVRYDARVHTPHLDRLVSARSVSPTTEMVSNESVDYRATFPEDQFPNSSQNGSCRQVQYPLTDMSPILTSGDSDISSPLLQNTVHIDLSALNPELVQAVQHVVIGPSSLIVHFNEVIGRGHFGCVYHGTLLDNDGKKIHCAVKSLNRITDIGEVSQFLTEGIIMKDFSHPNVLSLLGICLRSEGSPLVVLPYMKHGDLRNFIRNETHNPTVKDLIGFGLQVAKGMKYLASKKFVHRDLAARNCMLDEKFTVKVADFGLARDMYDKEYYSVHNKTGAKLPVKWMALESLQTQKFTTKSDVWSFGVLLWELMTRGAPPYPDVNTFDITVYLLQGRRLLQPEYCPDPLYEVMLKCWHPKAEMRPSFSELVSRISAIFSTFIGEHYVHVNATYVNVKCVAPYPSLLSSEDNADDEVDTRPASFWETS
T2 sequence (P08581 25-1390): as above

`COc1cc2nccc(Oc3ccc(NC(=O)NC(=O)Cc4ccc(F)cc4)c(F)c3)c2cc1OC` [Example 3, N-[4-(6,7-dimethoxyquinolin-4-yloxy)-2-fluoro-phenyl]-N′-[2-(4-fluorophenyl)acetyl]urea] was tested, and the IC50 [1] was 30.4 nM, the TGIR [2] was 71% and the TGIR ([3]; 30 × 2 mg/kg × number of times) was 31%. It also gave a TGIR ([4]; 30 mg/kg/time) of 51%, a TGIR ([4]; 100 mg/kg/time) of 60% and a TGIR [5] of 18%. The “TGIR (tumor growth inhibition rate)” value ([6]; dose 10 mg/kg/time) was 24%, the “TGIR (tumor growth inhibition rate)” value ([6]; dose 30 mg/kg/time) was 52% and the IC50 [7] was 19.7 nM.
Work on `COc1cc2c(Oc3ccc(NC(=O)NC(=O)Cc4ccccc4)cc3F)ccnc2cc1OCCCN1CCOCC1` [Example 11, 1-{3-fluoro-4-[6-methoxy-7-(3-morpholin-4-yl-propoxy)quinolin-4-yloxy]phenyl}-3-phenylacetylurea] yielded an IC50 [1] of 20.2 nM, an inhibition in vivo at 30 mg/kg [8] of 63% and a TGIR [9] of 62%. For the same compound, the TGIR [5] was 26%, the “TGIR (tumor growth inhibition rate)” value ([6]; dose 10 mg/kg/time) was 23% and the “TGIR (tumor growth inhibition rate)” value ([6]; dose 30 mg/kg/time) was 52%. It also gave an IC50 [7] of 58.1 nM.
`COc1cc2c(Oc3ccc(NC(=S)NC(=O)Cc4ccccc4)cc3F)ccnc2cc1OCCCN1CCOCC1` [Example 268, N-{3-fluoro-4-[6-methoxy-7-(3-morpholin-4-yl-propoxy)quinolin-4-yloxy]phenyl}-N′-phenylacetyl-thiourea] was tested, and the IC50 [1] was 22.8 nM, the TGIR [9] was 74% and the TGIR [5] was 35%. The “TGIR (tumor growth inhibition rate)” value ([6]; dose 30 mg/kg/time) was 81%.
Compound `COc1cc2c(Oc3ccc(NC(=S)NC(=O)Cc4ccc(F)cc4)cc3F)ccnc2cc1OCC(O)CN1CCOCC1` (centres unmarked) [Example 313, 1-{3-Fluoro-4-[7-(2-hydroxy-3-morpholin-4-yl-propoxy)-6-methoxy-quinolin-4-yloxy]-phenyl}-3-[2-(4-fluorophenyl)-acetyl]-thiourea] has an IC50 [1] of 21.1 nM, a TGIR ([3]; 12.5 × 1 mg/kg × number of times) of 34% and a TGIR ([3]; 25 × 1 mg/kg × number of times) of 45%. For the same compound, the TGIR ([3]; 50 × 1 mg/kg × number of times) was 48% and the TGIR [10] was 28%.
Compound `COc1cc2c(Oc3ccc(NC(=O)NC(=O)Cc4ccc(F)cc4)c(F)c3)ccnc2cc1OCCCN1CCOCC1` [Example 286, 1-{2-Fluoro-4-[6-methoxy-7-(3-morpholin-4-yl-propoxy)-quinolin-4-yloxy]-phenyl}-3-[2-(4-fluoro-phenyl)-acetyl]-urea] has an IC50 [1] of 29.3 nM, an inhibition in vivo at 30 mg/kg [8] of 64% and a TGIR [9] of 66%. It also gave a TGIR [5] of 37%.
`COc1cc2nccc(Oc3ccc(NC(=S)NC(=O)Cc4ccc(F)cc4)cc3F)c2cc1OC` [Example 2, N-[4-(6,7-dimethoxyquinolin-4-yloxy)-3-fluoro-phenyl]-N′-[2-(4-fluorophenyl)acetyl]thiourea] showed an IC50 [1] of 18.1 nM, a TGIR [2] of 75% and a TGIR ([3]; 30 × 2 mg/kg × number of times) of 54%. It also gave a TGIR ([4]; 10 mg/kg/time) of 38%, a TGIR ([4]; 30 mg/kg/time) of 61% and a TGIR [5] of 27%. The “TGIR (tumor growth inhibition rate)” value ([6]; dose 10 mg/kg/time) was 31%, the “TGIR (tumor growth inhibition rate)” value ([6]; dose 30 mg/kg/time) was 65% and the IC50 [7] was 11.8 nM.
